Experimental data: patent US20180141911A1, “Quinoline Derivatives for Diagnosis and Treatment of Alzheimer's Disease” (Northeastern University, priority 2015, published 2018)

Tests used:
tau and Aβ aggregates = conditions: post-mortem AD brain tissues; cited from earlier work
[1] = normal subjects, nonhuman primates; cited from earlier work

Brc1cnc2c(OCc3ccccc3)cccc2c1
melting point: 120 °C

Oc1cccc2cccnc12 [8-Hydroxyquinoline]
binding to tau and Aβ aggregates (tau and Aβ aggregates): bind to both tau and Aβ aggregates

Oc1c(I)cc(Cl)c2cccnc12 [clioquinol]
binding to tau and Aβ aggregates (tau and Aβ aggregates): bind to both tau and Aβ aggregates

Oc1cccc2ccc([18F])nc12 [[^18F]-CABS13, [^18F]-2-fluoro-8-hydroxyquinoline]
brain penetration [1]: poor brain penetration | conversion to a polar metabolite [1]: rapid, high conversion to a polar metabolite
